Consider 58 compounds from patent publication US10450300B2, “Wnt signaling pathway inhibitors and therapeutic applications thereof” (Suzhou Yunxuan Yiyao Keji Youxian Gongsi, priority 2015, dated 2019).

By pIC50 is commonly meant the negative decadic logarithm of the IC50, by convention in mol/L.

pIC50: −log10 of the molar value.

The assay deals with Wnt pathway. The assay can be described thus: Wnt pathway Super-top flash (STF) reporter gene assay (primary assay). The class given is cell-based. The settings on record: HEK293 STF cells co-cultured 1:1 with L Wnt3A cells; 48 h incubation; inhibition of luminescence signaling. The method, then: The primary assay is based on Wnt pathway Super-top flash (STF) reporter gene assay:
HEK293 STF stable clones (HEK293 cells stably transfected with “Super-Top Flash” TCF-luciferase reporter plasmid) were kept in complete culture medium (DMEM with 4 mM L-Gln, 1.5 g/L sodium bicarbonate and 4.5 g/L glucose containing 6 μg/mL Blasticidin and 10% FBS). L Wnt3A cells (CRL-2647, ATCC) were kept in DMEM (Gibico) containing 10% FBS (Hyclone). HEK293 STF and L Wnt3A cells were harvested when 90% confluence and cell suspension was mixed with a fixed ratio of 1:1 (HEK293 STF: L Wnt3A). 100 μL/well of mixed cells suspension was added to the 96-well-plate with final cell concentration of 12,000 cells/well and then cultured for an additional 24 hours before adding compounds.
Compounds were diluted in DMSO in sequence and then diluted with DMEM medium. 20 μL medium containing compound was added to the cells according to the pre-setting dose. Cell plates were incubated at 37° C. for an additional 48 hours.
50 μL luciferase solution (Bright-Glo, Promega) was added to each well […] the 48 h incubation. The plates were incubated at room temperature for 5 min under gentle shaking. Luminescence signaling was measured with a plate reader (PHERAstar FS, BMG). The IC50 (potency) of compounds was calculated based on the inhibition of luminescence signaling.
In general terms: A reporter such as luciferase makes a cellular process visible.
Regarding `Cc1cc(-c2ncc(CNc3nccc(-c4cncc(Cl)c4)c3F)cc2F)ccn1` [Compound A-116], the pIC50 was 8.10. On to `Cc1cc(-c2ccc(CNc3ncnc(N4CCc5c(Br)cccc5C4)c3F)cc2)ccn1` [Compound A-25], for which the pIC50 was less than 6.00.

As for `Cc1cc(-c2ccc(CNc3ncnc(-c4ccc5ccccc5c4)c3F)cn2)ccn1` [Compound A-30], the pIC50 is 7.64. As for `N#Cc1ccc2cc(CNc3ncnc(-c4ccc5ncccc5c4)c3F)ccc2c1` [Compound A-42, 6-((5-fluoro-6-(quinolin-6-yl)pyrimidin-4-ylamino)methyl)-2-naphthonitrile], the pIC50 is 9.15. Under `Cc1cc(-c2ccc(CNc3ncnc(-c4cccc(Cl)c4)c3F)cc2)ccn1` [Compound A-19] stands 7.85; under `Cc1cc(-c2ncc(CNc3nccc(N4CCc5ncccc5C4)c3F)cc2F)ccn1` [Compound A-202, 4-(7,8-dihydro-1,6-naphthyridin-6(5H)-yl)-3-fluoro-N-((3-fluoro-2′-methyl-2,4′-bipyridin-5-yl)methyl)pyridin-2-amine], 9.30; under `Cc1cc(-c2cnc(CNc3ncnc(-c4ccc5ncccc5c4)c3F)cn2)ccn1` [Compound A-63], 8.70. Under `CS(=O)(=O)CCNc1ccc(CNc2nsc(-c3ccc4ncccc4c3)n2)cn1` [Compound A-189] stands 5.52; under `Cc1cc(-c2ncc(CNc3ncnc(N4CCc5ncccc5C4)c3F)cc2C#N)ccn1` [Compound A-56], 9.00; under `Cc1cc(-c2ccc(CNc3cc(-c4ccc5ccccc5c4)ncn3)cc2)ccn1` [Compound A-134], 7.62.

For the compound `Cc1cc(-c2ncc(CNc3ncnc(C#Cc4cccnc4)c3F)cc2F)ccn1` [Compound A-69, 5-fluoro-N-((3-fluoro-2′-methyl-2,4′-bipyridin-5-yl)methyl)-6-(pyridin-3-ylethynyl)pyrimidin-4-amine], the pIC50 was 7.14. Under `Cc1cc(-c2ncc(CNc3ncnc(N4CCc5ncccc5C4)c3F)cc2F)ccn1` [Compound A-45] stands 9.40; under `Cc1cc(-c2ccc(CNc3nccc(-c4ccc5ncccc5c4)n3)cc2)ccn1` [Compound A-154], 8.92; under `CS(=O)(=O)CCNc1ccc(CNc2nccc(-c3ccc4ncccc4c3)n2)cn1` [Compound A-181], 6.46. Take `Cc1cc(-c2ccc(CNc3ncnc(-c4cnc5ccccc5c4)c3F)cc2)ccn1` [Compound A-2]: the pIC50 is 8.54. Under `Cc1cc(-c2ncc(CNc3nccc(-c4ccc5nccnc5c4)c3F)cc2F)ccn1` [Compound A-124] stands 9.92; under `CS(=O)(=O)CCNc1ccc(CNc2nccc(-c3ccc4ncccc4c3)c2F)cn1` [Compound A-112], 8.00; under `Cc1cc(-c2ncc(CNc3nccc(-c4cc5cccnc5cn4)n3)cc2C#N)ccn1` [Compound A-183, 5-((4-(1,7-naphthyridin-6-yl)pyrimidin-2-ylamino)methyl)-2′-methyl-2,4′-bipyridine-3-carbonitrile], 8.68. Consider `Cc1cc(-c2ccc(CNc3ncnc(-c4ccc5ncsc5c4)c3F)cc2)ccn1` [Compound A-12], for which the pIC50 is 9.52. `Cc1cc(-c2ncc(CNc3ncnc(-c4ccc5ncccc5c4)c3F)cc2C#N)ccn1` [Compound A-57]: the pIC50 is 9.41. Under `Cc1cc(-c2ncc(CNc3ncnc(N4Cc5cccnc5C4)c3F)cc2F)ccn1` [Compound A-88] stands 8.11; under `NC(=O)c1ccc2cc(CNc3ncnc(-c4ccc5ncccc5c4)c3F)ccc2c1` [Compound A-43, 6-((5-fluoro-6-(quinolin-6-yl)pyrimidin-4-ylamino)methyl)-2-naphthamide], 7.12. Under `Cc1cc(-c2ncc(CNc3nsc(N4CCc5ncccc5C4)n3)cc2C#N)ccn1` [Compound A-198, 5-((5-(7,8-dihydro-1,6-naphthyridin-6(5H)-yl)-1,2,4-thiadiazol-3-ylamino)methyl)-2′-methyl-2,4′-bipyridine-3-carbonitrile] stands 9.38; under `Fc1c(NCc2ccc(-c3ccnnc3)cc2)ncnc1-c1ccc2ncccc2c1` [Compound A-67], 8.00; under `Cc1cc(-c2ncc(CNc3ncnc(N4CCc5ncncc5C4)c3F)cc2F)ccn1` [Compound A-62], 8.21. With `COc1cc(CNc2nccc(-c3ccc4ncccc4c3)c2F)cnc1-c1ccnc(C)c1` [Compound A-106], the pIC50 was 9.62. Consider `Cc1cc(-c2ccc(CNc3ncnc(N4CCc5ccc(F)cc5C4)c3F)cc2)ccn1` [Compound A-23], for which the pIC50 is 7.82. Under `Cc1cc(-c2ncc(CNc3nsc(-c4ccc5ncccc5c4)n3)cc2F)ccn1` [Compound A-192] stands 10.00. As for `Cc1cc(-c2ccc(CNc3ncnc(-c4ccc5ccccc5c4)c3F)cc2)ccn1` [Compound A-1, 5-fluoro-N-(4-(2-methylpyridin-4-yl)benzyl)-6-(naphthalen-2-yl)pyrimidin-4-amine], the pIC50 was 8.85.

With `Cc1cc(-c2ccc(CNc3ncnc(-c4ccc(Cl)c(Cl)c4)c3F)cc2)ccn1` [Compound A-21], the pIC50 was 7.85.

Regarding `Cc1cc(-c2ccc(CNc3cc(-c4ccc5cnccc5c4)ncn3)cc2)ccn1` [Compound A-148], the pIC50 was 8.00.

With `Fc1c(NCc2ccc(-c3ccncn3)cc2)ncnc1-c1ccc2ncccc2c1` [Compound A-77], the pIC50 was 8.80. Under `Cc1cn(-c2ccc(CNc3nccc(-c4ccc5ncccc5c4)c3F)cc2)cn1` [Compound A-107] stands 7.80; under `Cc1cc(-c2ncc(CNc3ncnc(-c4ccc5ncccc5c4)c3F)cc2C)ccn1` [Compound A-34], 8.52; under `COc1cc(CNc2nccc(-c3ccc4ncccc4c3)n2)cnc1-c1ccnc(C)c1` [Compound A-175], 9.13. In the case of `Cc1cc(-c2ccc(CNc3ncnc(-c4ccc5nc(C)ccc5c4)c3F)cc2)ccn1` [Compound A-5], the pIC50 was 8.68. Under `Cc1cc(-c2ncc(CNc3ncnc(-c4ccc5ncccc5c4)c3F)cn2)ccn1` [Compound A-60] stands 9.09; under `Cc1cc(-c2ncc(CNc3ncnc(N4CCc5ncccc5C4)c3F)cn2)ccn1` [Compound A-61, 6-(7,8-dihydro-1,6-naphthyridin-6(5H)-yl)-5-fluoro-N-((2-(2-methylpyridin-4-yl)pyrimidin-5-yl)methyl)pyrimidin-4-amine], 8.89; under `Cc1cc(-c2ccc(CNc3nccc(-c4ccc5ncccc5c4)c3F)cn2)ccn1` [Compound A-101], 9.51.

For the compound `Cc1cc(-c2ncc(CNc3ncnc(-c4cc5cccnc5cn4)c3F)cc2F)ccn1` [Compound A-85, 5-fluoro-N-((3-fluoro-2′-methyl-2,4′-bipyridin-5-yl)methyl)-6-(1,7-naphthyridin-6-yl)pyrimidin-4-amine], the pIC50 is 9.85. Under `N#Cc1ccc(NCCNc2nsc(-c3ccc4ncccc4c3)n2)nc1` [Compound A-200] stands 7.60; under `Fc1c(-c2ccc3ncccc3c2)ccnc1NCc1ccc(-c2ccncc2)cc1` [Compound A-104], 9.96; under `Cc1cc(-c2ncc(CNc3ncnc(N4CCn5nccc5C4)c3F)cc2F)ccn1` [Compound A-87], 9.29. For the compound `COc1cc(CNc2nccc(-c3cc4cccnc4cn3)n2)cnc1-c1ccnc(C)c1` [Compound A-182], the negative logarithm of the IC50 (pIC50) is 9.19.

Regarding `Cc1cc(-c2ccc(CNc3ncnc(-c4ccc5nccn5c4)c3F)cc2)ccn1` [Compound A-11], the pIC50 was 8.80. Under `Cc1cc(-c2ccc(CNc3ncnc(N4CCc5ccccc5C4)c3F)cc2)ccn1` [Compound A-22] stands 7.85.

As for `Cc1cc(-c2ncc(CNc3nccc(-c4ccc5nonc5c4)c3F)cc2F)ccn1` [Compound A-114], the pIC50 is 8.10. Under `Cc1cc(-c2ccc(CNc3ncnc(-c4ccc5[nH]ncc5c4)c3F)cc2)ccn1` [Compound A-13] stands 7.00. Turning to `Cc1cc(-c2ncc(CNc3ncnc(N4CCn5nncc5C4)c3F)cc2C#N)ccn1` [Compound A-92], the pIC50 was 8.00. Under `Cc1cc(-c2ncc(CNc3nccc(-c4ccc5ncccc5n4)c3F)cc2F)ccn1` [Compound A-108] stands 9.00; under `Cc1cc(-c2ccc(CNc3cc(-c4ccc5ccccc5c4)nc(C)n3)cc2)ccn1` [Compound A-139], 5.52. Under `Cc1cc(-c2ccc(CNc3nccc(-c4ccc5ncccc5c4)c3F)cc2)ccn1` [Compound A-97] stands 9.74; under `Cc1cc(-c2ccc(CNc3cc(N4CCc5ccccc5C4)ncn3)cc2)ccn1` [Compound A-133], 7.47. For the compound `Fc1c(NCc2ccc(-n3ccnc3)cc2)ncnc1-c1ccc2ccccc2c1` [Compound A-40], the pIC50 was less than 6.00. Take `Cc1cc(-c2ncc(CNc3nccc(-c4ccc5ncccc5c4)n3)cn2)ccn1` [Compound A-172]: the negative-log IC50 (pIC50) was 8.77. Under `Cc1cc(-c2ccc(CNc3ncnc(-c4ccc5ccccc5c4)c3F)nc2)ccn1` [Compound A-37] stands 8.62. Under `Cc1cc(-c2ccc(CNc3ncnc(-c4ccc5nn(C)cc5c4)c3F)cc2)ccn1` [Compound A-14] stands 8.23; under `Cc1cc(-c2ccc(CNc3ncnc(-c4ccc(Cl)cc4)c3F)cc2)ccn1` [Compound A-20], 6.68.
